Results on eleven compounds are retold here after ChEMBL document CHEMBL1201862, “PubChem BioAssay data set” (2004).

What all share (format): functional
Experiment [1] is described as follows: intracellular Trypanosoma cruzi inhibitors in host cells – cell-based, plate reader, cherry-pick samples, set 3, dose response (AID 651818).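 Note: compounds incubated with infected cells for about four days.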
Another experiment concerns the target T1, Caspase-3 (Homo sapiens, UniProt P42574).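 Note: Dose-response selectivity test against caspase-3 for candidate inhibitors of sentrin-specific proteases (SENPs).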
T1 sequence (P42574 whole entry): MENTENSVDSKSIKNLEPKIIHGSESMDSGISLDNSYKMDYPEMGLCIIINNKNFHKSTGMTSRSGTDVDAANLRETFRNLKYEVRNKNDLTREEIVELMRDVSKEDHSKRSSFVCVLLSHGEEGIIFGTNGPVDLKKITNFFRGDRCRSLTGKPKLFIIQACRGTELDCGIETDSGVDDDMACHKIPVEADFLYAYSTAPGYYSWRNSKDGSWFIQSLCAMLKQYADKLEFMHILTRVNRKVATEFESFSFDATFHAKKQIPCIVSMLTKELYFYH

Experiment [2] deals with T2, Sentrin-specific protease 7 (Homo sapiens, UniProt Q9BQF6).
T2 sequence (Q9BQF6 whole entry): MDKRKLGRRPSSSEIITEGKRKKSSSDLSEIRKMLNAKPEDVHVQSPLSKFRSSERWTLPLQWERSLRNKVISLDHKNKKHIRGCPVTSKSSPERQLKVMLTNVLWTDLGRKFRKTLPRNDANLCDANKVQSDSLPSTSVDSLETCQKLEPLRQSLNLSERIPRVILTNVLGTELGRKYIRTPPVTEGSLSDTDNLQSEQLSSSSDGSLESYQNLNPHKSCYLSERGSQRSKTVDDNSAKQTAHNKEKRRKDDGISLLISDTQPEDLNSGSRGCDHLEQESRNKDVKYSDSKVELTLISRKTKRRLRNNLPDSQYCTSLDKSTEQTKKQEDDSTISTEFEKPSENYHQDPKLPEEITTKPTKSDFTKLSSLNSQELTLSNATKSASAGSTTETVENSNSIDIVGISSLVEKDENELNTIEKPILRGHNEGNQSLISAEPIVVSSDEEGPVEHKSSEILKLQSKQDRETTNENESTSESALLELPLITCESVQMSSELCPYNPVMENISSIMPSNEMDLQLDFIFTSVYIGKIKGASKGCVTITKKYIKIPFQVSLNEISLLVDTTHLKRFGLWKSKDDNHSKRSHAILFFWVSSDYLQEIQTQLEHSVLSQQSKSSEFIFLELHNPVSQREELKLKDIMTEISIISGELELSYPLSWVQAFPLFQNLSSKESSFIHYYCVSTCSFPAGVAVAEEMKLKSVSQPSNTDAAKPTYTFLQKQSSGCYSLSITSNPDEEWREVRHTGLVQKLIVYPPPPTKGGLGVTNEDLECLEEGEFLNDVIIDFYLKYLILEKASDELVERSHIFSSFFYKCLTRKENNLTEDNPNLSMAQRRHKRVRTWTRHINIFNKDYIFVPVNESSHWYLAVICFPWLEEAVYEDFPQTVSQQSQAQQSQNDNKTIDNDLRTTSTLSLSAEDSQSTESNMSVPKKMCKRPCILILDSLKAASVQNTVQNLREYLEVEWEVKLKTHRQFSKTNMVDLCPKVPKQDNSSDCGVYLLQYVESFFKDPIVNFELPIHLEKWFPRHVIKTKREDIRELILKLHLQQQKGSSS

For experiment [3], the target named is T3, Sentrin-specific protease 6 (Homo sapiens, UniProt Q9GZR1).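 Note: Luminescence-based dose-response confirmatory assay of SENP6 inhibition, following up an ultra-high-throughput screen.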
T3 sequence (Q9GZR1 whole entry): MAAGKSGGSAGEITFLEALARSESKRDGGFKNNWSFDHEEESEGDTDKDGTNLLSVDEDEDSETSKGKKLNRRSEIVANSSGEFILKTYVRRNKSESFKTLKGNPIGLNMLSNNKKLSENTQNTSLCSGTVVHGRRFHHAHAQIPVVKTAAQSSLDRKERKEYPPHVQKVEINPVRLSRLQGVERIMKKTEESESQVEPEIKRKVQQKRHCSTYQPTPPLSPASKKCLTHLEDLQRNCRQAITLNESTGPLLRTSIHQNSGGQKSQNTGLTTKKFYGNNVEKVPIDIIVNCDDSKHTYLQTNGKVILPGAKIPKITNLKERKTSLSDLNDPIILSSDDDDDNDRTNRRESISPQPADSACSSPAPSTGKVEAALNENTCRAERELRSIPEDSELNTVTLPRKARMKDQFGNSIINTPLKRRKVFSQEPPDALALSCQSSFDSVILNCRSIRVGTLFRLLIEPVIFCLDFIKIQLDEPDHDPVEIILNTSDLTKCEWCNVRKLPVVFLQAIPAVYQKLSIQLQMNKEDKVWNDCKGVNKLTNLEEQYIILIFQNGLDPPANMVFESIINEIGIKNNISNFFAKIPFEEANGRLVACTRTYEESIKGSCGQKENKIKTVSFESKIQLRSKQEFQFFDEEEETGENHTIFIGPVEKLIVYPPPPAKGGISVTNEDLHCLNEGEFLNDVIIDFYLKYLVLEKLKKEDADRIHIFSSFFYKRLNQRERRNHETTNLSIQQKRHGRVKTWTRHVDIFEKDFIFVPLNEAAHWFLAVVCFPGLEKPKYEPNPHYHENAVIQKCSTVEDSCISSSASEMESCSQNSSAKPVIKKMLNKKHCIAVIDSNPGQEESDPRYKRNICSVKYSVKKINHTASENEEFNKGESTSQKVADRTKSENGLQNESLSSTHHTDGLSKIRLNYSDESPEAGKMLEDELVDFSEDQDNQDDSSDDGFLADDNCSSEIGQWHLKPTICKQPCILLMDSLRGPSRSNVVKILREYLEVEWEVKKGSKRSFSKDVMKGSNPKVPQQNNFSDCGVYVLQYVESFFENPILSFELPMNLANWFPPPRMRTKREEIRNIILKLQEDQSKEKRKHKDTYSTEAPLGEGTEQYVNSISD

In experiment [4] the target is T4, Sentrin-specific protease 8 (Homo sapiens, UniProt Q96LD8).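 Note: luminescence read-out of SENP8 inhibition, dose-response confirmation following an ultra-high-throughput screen.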
T4 sequence (Q96LD8 whole entry): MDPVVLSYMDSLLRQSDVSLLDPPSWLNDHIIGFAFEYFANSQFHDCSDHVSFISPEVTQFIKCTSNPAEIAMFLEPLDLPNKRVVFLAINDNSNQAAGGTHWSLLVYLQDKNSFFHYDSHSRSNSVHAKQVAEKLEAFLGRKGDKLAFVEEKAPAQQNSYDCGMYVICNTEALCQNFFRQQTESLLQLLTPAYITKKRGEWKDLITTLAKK

In the next experiment the target is T5, Protein skinhead-1 (Caenorhabditis elegans, UniProt P34707).
T5 sequence (P34707 whole entry): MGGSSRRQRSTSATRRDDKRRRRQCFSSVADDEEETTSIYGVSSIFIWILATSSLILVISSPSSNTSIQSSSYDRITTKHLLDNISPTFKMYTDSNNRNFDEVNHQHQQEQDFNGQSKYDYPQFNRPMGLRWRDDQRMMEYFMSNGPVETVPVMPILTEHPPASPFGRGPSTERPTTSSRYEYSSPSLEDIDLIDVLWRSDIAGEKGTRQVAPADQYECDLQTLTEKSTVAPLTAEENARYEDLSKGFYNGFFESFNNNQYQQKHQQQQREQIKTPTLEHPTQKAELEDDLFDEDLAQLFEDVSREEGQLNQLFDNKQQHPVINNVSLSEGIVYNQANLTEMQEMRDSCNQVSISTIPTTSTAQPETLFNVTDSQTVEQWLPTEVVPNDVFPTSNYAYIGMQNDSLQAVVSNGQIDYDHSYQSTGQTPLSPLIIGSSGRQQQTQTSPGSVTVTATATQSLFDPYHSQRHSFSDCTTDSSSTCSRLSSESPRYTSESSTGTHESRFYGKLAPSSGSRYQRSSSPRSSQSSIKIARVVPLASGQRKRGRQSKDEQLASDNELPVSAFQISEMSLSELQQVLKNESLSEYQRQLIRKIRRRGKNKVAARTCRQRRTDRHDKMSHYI

Experiment [5] addresses T6, Corticotropin-releasing factor receptor 2/Corticotropin-releasing factor-binding protein (Homo sapiens, UniProt P24387+Q13324).
T6 sequence (Q13324 whole entry): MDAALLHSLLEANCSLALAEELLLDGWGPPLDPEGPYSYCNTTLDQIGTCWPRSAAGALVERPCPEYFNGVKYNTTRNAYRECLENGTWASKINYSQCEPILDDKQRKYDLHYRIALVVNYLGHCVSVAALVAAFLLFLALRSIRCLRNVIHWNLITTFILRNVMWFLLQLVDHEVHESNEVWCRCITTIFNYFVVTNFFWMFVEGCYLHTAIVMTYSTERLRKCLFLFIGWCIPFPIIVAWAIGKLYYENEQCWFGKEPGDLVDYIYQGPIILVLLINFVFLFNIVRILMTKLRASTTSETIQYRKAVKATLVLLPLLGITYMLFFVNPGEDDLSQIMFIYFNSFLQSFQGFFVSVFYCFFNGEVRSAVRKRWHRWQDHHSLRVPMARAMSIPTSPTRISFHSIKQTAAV
T6 sequence (P24387 whole entry): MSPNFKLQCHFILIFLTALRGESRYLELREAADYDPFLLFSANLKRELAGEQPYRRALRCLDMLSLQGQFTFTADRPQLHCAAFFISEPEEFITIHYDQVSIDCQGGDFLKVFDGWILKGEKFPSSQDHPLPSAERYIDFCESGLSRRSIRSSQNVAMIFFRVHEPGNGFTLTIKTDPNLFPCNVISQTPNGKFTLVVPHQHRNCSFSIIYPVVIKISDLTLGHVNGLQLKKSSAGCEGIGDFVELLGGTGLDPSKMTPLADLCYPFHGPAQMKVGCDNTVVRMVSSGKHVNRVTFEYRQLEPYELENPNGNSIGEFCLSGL
The experiment is described as follows: Dose Response confirmation of uHTS hits for small molecule antagonists of the CRF-binding protein and CRF-R2 receptor complex. The conditions noted are these: read-out: IC50_Mean.

Experiment [6] addresses T6, Corticotropin-releasing factor receptor 2/Corticotropin-releasing factor-binding protein. The experiment is described as follows: activators of CRF receptor 2 with binding protein – uHTS hits, confirmation (AID 602473). The conditions noted are these: read-out: EC50_Mean.
The next experiment deals with Vero. The experiment is described as follows: Vero cell cytotoxicity, cytotoxicity control for flavivirus capping enzyme inhibitors (AID 588742). The conditions noted are these: Chlorocebus sabaeus.
A further experiment has as its target Genome polyprotein (dengue virus type 2, UniProt P29990). The experiment in a line: Dengue-2 NS5 methyltransferase inhibitors, primary screen, biochemical, confirmation dose response (AID 588689).
A short description of experiment [7]: Luminescence Cell-Based Dose Response HTS to Identify Activators of Luciferase Translation or Activity in H4 […] Cells. [Related pubchem assays: 1829 (Project Summary), 1814 (Primary HTS)].
A further experiment has as its system H4. The experiment is described as follows: Luminescence Cell-Based Dose Response HTS to Identify Activators of 5'UTR Stem-Loop Driven Prion Protein mRNA Translation in H4 Neuroglioblastoma Cells. [Related pubchem assays: 1829 (Project Summary), 1814 (Primary HTS)]. The conditions noted are these: Homo sapiens.
In experiment [8] the target is T7, Heat shock factor protein 1 (Mus musculus, UniProt P38532).
T7 sequence (P38532 whole entry): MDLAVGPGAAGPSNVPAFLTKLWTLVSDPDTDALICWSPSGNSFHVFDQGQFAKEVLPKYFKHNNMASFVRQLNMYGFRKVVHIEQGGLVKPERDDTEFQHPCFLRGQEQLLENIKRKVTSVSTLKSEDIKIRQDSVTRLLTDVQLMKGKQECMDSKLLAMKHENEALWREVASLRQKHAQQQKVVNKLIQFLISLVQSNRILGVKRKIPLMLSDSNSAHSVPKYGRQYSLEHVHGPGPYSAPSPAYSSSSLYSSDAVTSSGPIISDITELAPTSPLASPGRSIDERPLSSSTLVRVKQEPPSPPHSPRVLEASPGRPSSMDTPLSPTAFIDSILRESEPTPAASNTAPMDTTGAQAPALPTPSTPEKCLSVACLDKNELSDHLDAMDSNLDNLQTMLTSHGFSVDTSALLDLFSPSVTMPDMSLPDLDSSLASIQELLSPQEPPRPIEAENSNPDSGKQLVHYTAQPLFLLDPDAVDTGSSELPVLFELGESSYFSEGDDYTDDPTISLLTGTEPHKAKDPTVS
The experiment in a line: inhibition of MG132-induced HSE-luciferase signal, confirmation, cell-based, NIH3T3, luminescence, dose retest (AID 2382).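 Note: NIH3T3 fibroblasts with HSF1-driven luciferase reporter stressed by proteasome inhibitor MG132; luminescence from HSF1-driven luciferase expression after 8 hours of MG132 stress.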

Activity calls are given as the source filed them.

Sequence of Genome polyprotein (P29990 2492-3391 limits assumed): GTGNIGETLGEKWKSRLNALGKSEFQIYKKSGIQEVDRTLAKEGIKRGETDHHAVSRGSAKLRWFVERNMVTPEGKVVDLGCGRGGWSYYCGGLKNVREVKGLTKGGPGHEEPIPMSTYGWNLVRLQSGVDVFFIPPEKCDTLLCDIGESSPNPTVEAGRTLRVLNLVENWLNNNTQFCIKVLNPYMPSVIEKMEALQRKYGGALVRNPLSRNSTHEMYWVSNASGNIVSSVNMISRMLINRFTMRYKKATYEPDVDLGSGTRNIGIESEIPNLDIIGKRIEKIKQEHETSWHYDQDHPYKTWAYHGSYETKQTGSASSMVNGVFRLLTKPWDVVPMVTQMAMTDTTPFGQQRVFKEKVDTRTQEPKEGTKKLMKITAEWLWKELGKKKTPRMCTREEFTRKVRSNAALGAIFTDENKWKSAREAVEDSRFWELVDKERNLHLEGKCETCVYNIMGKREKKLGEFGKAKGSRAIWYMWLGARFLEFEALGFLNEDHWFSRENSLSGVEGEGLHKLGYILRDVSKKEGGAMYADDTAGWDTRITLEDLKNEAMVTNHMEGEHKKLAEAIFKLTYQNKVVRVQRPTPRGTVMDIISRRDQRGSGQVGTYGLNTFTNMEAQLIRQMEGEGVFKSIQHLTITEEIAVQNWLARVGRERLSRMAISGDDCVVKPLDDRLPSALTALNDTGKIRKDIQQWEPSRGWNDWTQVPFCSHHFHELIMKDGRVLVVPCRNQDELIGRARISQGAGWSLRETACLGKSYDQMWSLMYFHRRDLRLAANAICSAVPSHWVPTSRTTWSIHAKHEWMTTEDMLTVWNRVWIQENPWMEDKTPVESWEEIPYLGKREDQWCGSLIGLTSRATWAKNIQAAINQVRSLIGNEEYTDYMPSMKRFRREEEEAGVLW

Take `C[C@@H]1CN([C@@H](C)CO)C(=O)c2cccc(NC(=O)Nc3ccccc3)c2O[C@H]1CN(C)Cc1ccc(Oc2ccccc2)cc1`: the AC50 in experiment [1] was 2.97 µM (active).
For the compound `O=[N+]([O-])c1ccc(CSc2nc3ccccc3o2)cc1`, the IC50 was 25.6 µM (active) at Caspase-3; 7.69 µM (active) in [2]; 23.3 µM (active) in [3]; 16.2 µM (active) in [4]; > 100 µM (inactive) on Protein skinhead-1.
Take `C[C@@H]1CN([C@H](C)CO)C(=O)Cc2cc(NC(=O)Nc3ccc(C(F)(F)F)cc3)ccc2O[C@@H]1CN(C)Cc1ccc(Cl)c(Cl)c1`: in experiment [1], the AC50 is 6.82 µM (active).
For the compound `Cc1cccc(C(=O)N2c3ccccc3C(=O)OC2c2ccc3c(c2)OCO3)c1` (stereo not drawn), in experiment [5], the IC50 is < 0.368 µM (active). Besides, the EC50 in [6] is > 53 µM (inactive).
The matching figures for `COC(=O)C1=C(C)N=C(C)/C(=C(/O)OC)C1/C=C/c1ccccc1` (stereo not drawn): > 47.1 µM (inactive) and > 53 µM (inactive).
Turning to `C[C@H](CO)N1C[C@H](C)[C@H](CN(C)Cc2ccc(C(=O)Nc3ccccc3N)cc2)Oc2ccc(NC(=O)Nc3ccc4c(c3)OCO4)cc2C1=O`, in experiment [1], the AC50 was 3.55 µM (active).
For the compound `Cc1ccc(C(=O)Nc2ccccc2C(=O)NC2CCCCC2)cc1S(=O)(=O)N1CCOCC1`, the IC50 in experiment [5] was > 47.1 µM (inactive). The EC50 in experiment [6] is > 53 µM (inactive).
As to `C[C@@H]1CCCCO[C@@H](CN(C)Cc2ccc(C(F)(F)F)cc2)[C@@H](C)CN([C@H](C)CO)C(=O)c2cc(NS(=O)(=O)c3ccc(F)cc3)ccc2O1`, the half-maximal activity concentration (AC50) in [1] was 5.13 µM (active).
On the same count and under the same terms, the value for `C[C@@H]1CN([C@H](C)CO)C(=O)c2cccc(NC(=O)c3nc4ccccc4s3)c2O[C@@H]1CN(C)Cc1ccc(C(F)(F)F)cc1` was 5.42 µM (active).
Consider `N#CC(=C1C=C(Br)C(=NO)C=C1Cl)c1ccc(Cl)cc1`, for which the CC50 in the experiment with Vero is > 40 µM (active). Moreover, at Genome polyprotein, the IC50 was 62.4 µM (active).
Regarding `Cc1cc(O)c(C2=Nc3ccccc3SC(c3ccc(Cl)cc3)C2)c(=O)o1` (stereo not drawn), the EC50 in experiment [7] is 38.4 µM (active); with H4, 107 µM (inconclusive); in experiment [8], 21 µM (active); in experiment [6] it was > 53 µM (inactive). Further, in experiment [5], the IC50 is > 47.1 µM (inactive).

For orientation: AC50 means the midpoint of the concentration-response curve, whichever way the signal moves. A word on the CC50: it is the concentration at which the toxic effect on the cells reaches its halfway point.
